Reference: ChEMBL document CHEMBL1136027, “Design, synthesis and structure-activity relationships of novel imidazolo[1,2-a]pyrimid-5-ones as potent GnRH receptor antagonists” (Bioorg Med Chem Lett, 2002)

Tested on: not listed separately
Test: Half-life in rat plasma was determined
Format: ADME, organism-based
Conditions: not given; call rule not given here

Row | half-life [min] | SMILES
1 | 28 | CCC(CC)OC(=O)c1cn(Cc2ccccc2F)c2cc(-c3ccc(NC(C)=O)cc3)c(CN(C)CCc3ccccn3)n2c1=O

Molecular target: T1, Gonadotropin-releasing hormone receptor (Homo sapiens, UniProt P30968)
T1 sequence (P30968 whole entry): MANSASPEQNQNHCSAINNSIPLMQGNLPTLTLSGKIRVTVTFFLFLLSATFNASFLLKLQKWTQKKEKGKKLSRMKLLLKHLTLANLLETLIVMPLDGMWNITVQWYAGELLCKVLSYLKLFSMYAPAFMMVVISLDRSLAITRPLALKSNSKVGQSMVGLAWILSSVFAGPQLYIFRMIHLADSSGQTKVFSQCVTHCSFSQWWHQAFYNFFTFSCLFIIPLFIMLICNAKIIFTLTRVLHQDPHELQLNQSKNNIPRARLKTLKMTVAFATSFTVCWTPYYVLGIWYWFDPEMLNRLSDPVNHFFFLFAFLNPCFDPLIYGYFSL
Test: Binding evaluated in cloned human Gonadotropin-releasing hormone receptor by displacement of [125 I-Tyr, DLeu, NMeLeu, Pro-NEt]GnRH agonist
Conditions: not given

Row | Ki | SMILES
2 | Not Active | COc1ccc(-c2nc3n(Cc4ccccc4F)c(C)c(-c4ccc5c(c4)OCO5)c(=O)n3c2CN(C)C2CCN(C)CC2)cc1

Same assay, conditions: read-out: Ki

Row | SMILES | Ki [nM]
3 | COc1ccc(-c2nc3n(Cc4ccccc4F)c(C)c(-c4ccc5c(c4)OCO5)c(=O)n3c2CN2CCCN(C)CC2)cc1 | 9500
4 | COc1ccc(-c2nc3n(Cc4ccccc4F)c(C)c(-c4ccc5c(c4)OCO5)c(=O)n3c2CN2CCOCC2)cc1 | 28000
5 | CCC(CC)OC(=O)c1cn(Cc2ccccc2F)c2nc(-c3ccc(OC)cc3)c(CN(C)CCc3ccccn3)n2c1=O | 230
6 | COCCN(C)Cc1c(-c2ccc(OC)cc2)nc2n(Cc3ccccc3F)c(C)c(-c3ccc4c(c3)OCO4)c(=O)n12 | 150
7 | COc1ccc(-c2nc3n(Cc4ccccc4F)c(C)c(-c4cccc(C(F)(F)F)c4)c(=O)n3c2CN(C)CCc2ccccn2)cc1 | 140
8 | COc1ccc(-c2nc3n(Cc4ccccc4F)c(C)c(Br)c(=O)n3c2CN(C)CCc2ccccn2)cc1 | 2500
9 | CCCCN(C)Cc1c(-c2ccc(OC)cc2)nc2n(Cc3ccccc3F)c(C)c(-c3ccc4c(c3)OCO4)c(=O)n12 | 220
10 | COc1ccc(-c2nc3n(Cc4ccccc4F)c(C)c(-c4cc(OC)c(OC)c(OC)c4)c(=O)n3c2CN(C)CCc2ccccn2)cc1 | 370
11 | COc1ccc(-c2nc3n(Cc4ccccc4F)c(C)c(-c4ccc5c(c4)OCO5)c(=O)n3c2CN(C)CCc2ccncc2)cc1 | 1400

Second part, the compound after the results:

Row | Ki [nM] | SMILES
12 | 130 | CCN(CC)CCN(C)Cc1c(-c2ccc(OC)cc2)nc2n(Cc3ccccc3F)c(C)c(-c3ccc4c(c3)OCO4)c(=O)n12
13 | 110 | COc1ccc(-c2nc3n(Cc4ccccc4F)c(C)c(-c4ccc(OC)c(OC)c4)c(=O)n3c2CN(C)CCc2ccccn2)cc1
14 | 110 | COc1ccc(-c2nc3n(Cc4ccccc4F)c(C)c(-c4ccc5c(c4)OCO5)c(=O)n3c2CN(C)CCc2ccccc2)cc1
15 | 100 | COc1ccc(-c2nc3n(Cc4ccccc4F)c(C)c(-c4cc(Cl)cc(Cl)c4)c(=O)n3c2CN(C)CCc2ccccn2)cc1
16 | 79 | COc1ccc(-c2nc3n(Cc4ccccc4F)c(C)c(-c4cccc(F)c4)c(=O)n3c2CN(C)CCc2ccccn2)cc1
17 | 67 | COc1ccc(-c2nc3n(Cc4ccccc4F)c(C)c(-c4ccc5c(c4)OCO5)c(=O)n3c2CN(C)CCc2ccccc2F)cc1
18 | 65 | COc1ccc(-c2nc3n(Cc4ccccc4F)c(C)c(-c4ccccc4OC)c(=O)n3c2CN(C)CCc2ccccn2)cc1
19 | 56 | COc1ccc(-c2nc3n(Cc4ccccc4F)c(C)c(-c4cccc(S)c4)c(=O)n3c2CN(C)CCc2ccccn2)cc1
20 | 47 | COc1ccc(-c2nc3n(Cc4ccccc4F)c(C)c(-c4ccc5c(c4)OCO5)c(=O)n3c2CN(C)Cc2ccccc2)cc1
21 | 18 | COc1ccc(-c2nc3n(Cc4ccccc4F)c(C)c(-c4ccc(OC)cc4)c(=O)n3c2CN(C)CCc2ccccn2)cc1
22 | 11 | COc1ccc(-c2nc3n(Cc4ccccc4F)c(C)c(-c4ccc5c(c4)OCO5)c(=O)n3c2CN(C)CCc2ccccn2)cc1
23 | 4.6 | COc1ccc(-c2nc3n(Cc4ccccc4F)c(C)c(-c4cccc(OC)c4)c(=O)n3c2CN(C)CCc2ccccn2)cc1
